Reference: US8686041B2, “Inhibition of ornithine aminotransferase for the treatment of proliferative disorders” (Hadasit Medical Research Services & Development, Ltd., priority 2006, dated 2014)

How the values were obtained:
[1] = system: HEP3B; test: αFP secretion by HCC cell lines with Gabaculine analogue 8; assay type: cell-based, human; conditions: 48 hours
Experimental: (§1) 1×10^5 cells/well of each of Hep3b and HepG2 hepatocellular carcinoma cell lines were plated in triplicate and incubated at 37° C. Gabaculine analogue 8 was added to wells at varying concentrations (0.1 μg/ml, 1 μg/ml, 10 μg/ml and 50 μg/ml). Cells returned to incubator for further incubation of 48 hours. In the fourth day of the experiment, one ml of supernatant from each well was transferred to eppendorf tubes and analyzed for αFP concentration. αFP levels were checked using the Abbott Diagnostic AxSYM system. Encouraged by the in vitro and in vivo results of inhibiting OAT using Gabaculine, the inventors next examined the in vitro effect of a further OAT inhibitor, Gabaculine analogue 8 (LHJ-II-79), on AFP secretion from two different HCC cell lines. Therefore, Hep3b and HepG2 hepatocellular carcinoma cell lines were detached from culture dishes using trypsin-EDTA, re-plated in triplicates in 12 well culture dishes (1×10^5 cells/well) and incubated at 37° C. Gabaculine analogue 8 was added to wells at varying concentrations (0.1 μg/ml, 1 μg/ml, 10 μg/ml and 50 μg/ml). After 48 hours, cell supernatant was analyzed for AFP concentration.

[2] = system: HepG2; test: as above; assay type: cell-based, human; conditions: 48 hours
Experimental: as §1

[3] = 0.1-50 μg/ml, effect concentration dependent

Compound: Cl.NC1CC(C(=O)O)CC1=C=C(C(F)(F)F)C(F)(F)F (stereo not shown) [analogue 8, 1-carboxy-3-amino-4-bis(trifluoromethyl)vinylidene cyclopentane hydrochloride]
- AFP secretion by the cells, in words [1, 3]: significant reduction of AFP secretion
- AVG results AF ([1]; EXP. I, 10 ug/ml, 1:5 dil, CONTROL 42.52): 37.96 ng/mL
- AVG results AF ([1]; EXP. I, 50 ug/ml, 1:5 dil, CONTROL 42.52): 18.52 ng/mL
- AVG results AF ([1]; EXP. II, 0.1 ug/ml, 1:5 dil, CONTROL 13.42): 12.66 ng/mL
- AVG results AF ([1]; EXP. II, 1 ug/ml, 1:5 dil, CONTROL 13.42): 11.92 ng/mL
- AVG results AF ([1]; EXP. II, 10 ug/ml, 1:5 dil, CONTROL 13.42): 9.63 ng/mL
- AVG results AF ([1]; EXP. II, 50 ug/ml, 1:5 dil, CONTROL 13.42): 9.37 ng/mL
- AVG results AF ([1]; EXP. III, 10 ug/ml, 1:5 dil, CONTROL 11.39): 10.97 ng/mL
- AVG results AF ([1]; EXP. III, 50 ug/ml, 1:5 dil, CONTROL 11.39): 6.98 ng/mL
- AVG results AF ([1]; EXP. IV, 10 ug/ml, 1:2 dil, CONTROL 18.45): 13.73 ng/mL
- AVG results AF ([1]; EXP. IV, 50 ug/ml, 1:2 dil, CONTROL 18.45): 11.30 ng/mL
- AFP secretion by the cells, in words [2, 3]: significant reduction of AFP secretion
- AVG results AF ([2]; EXP. I, 10 ug/ml, 1:100 dil, CONTROL 34.19): 37.98 ng/mL
- AVG results AF ([2]; EXP. I, 50 ug/ml, 1:100 dil, CONTROL 34.19): 23.54 ng/mL
- AVG results AF ([2]; EXP. II, 0.1 ug/ml, 1:100 dil, CONTROL 11.93): 11.92 ng/mL
- AVG results AF ([2]; EXP. II, 1 ug/ml, 1:100 dil, CONTROL 11.93): 12.85 ng/mL
- AVG results AF ([2]; EXP. II, 10 ug/ml, 1:100 dil, CONTROL 11.93): 11.38 ng/mL
- AVG results AF ([2]; EXP. II, 50 ug/ml, 1:100 dil, CONTROL 11.93): 8.54 ng/mL
- AVG results AF ([2]; EXP. III, 10 ug/ml, 1:100 dil, CONTROL 12.07): 10.67 ng/mL
- AVG results AF ([2]; EXP. III, 50 ug/ml, 1:100 dil, CONTROL 12.07): 7.57 ng/mL
- AVG results AF ([2]; EXP. IV, 10 ug/ml, 1:50 dil, CONTROL 13.32): 12.74 ng/mL
- AVG results AF ([2]; EXP. IV, 50 ug/ml, 1:50 dil, CONTROL 13.32): 8.94 ng/mL
